Source: patent US20240083873A1, “PYRIMIDINE CARBOXAMIDE COMPOUND AND APPLICATION THEREOF” (SHANGHAI MEIYUE BIOTECH DEVELOPMENT CO., LTD, priority 2020, published 2024)
Values belong to the compound of their own block, whether it stands above or below them.

Columns and labels:
[1] = target: recombinant human Vanin-1 (Homo sapiens (Human), UniProt O95497); assay: Vanin-1 recombinant enzyme activity inhibition assay; type: biochemical; conditions: Pantetheine 7-amino-4-trifluoromethylcoumarin substrate 45 μM, data at the 30th minute
Description: 1. Vanin-1 Recombinant Enzyme Activity Inhibition Assay
A certain mass of the compound was weighed precisely, and prepared with DMSO and reaction buffer (50 mM Tris base, 50 mM KCl, 1.6 mM cysteamine, 0.005% Brij 35, pH 8.0, prepared when using) to a maximum concentration of 10000 nM, then diluted in a 4-fold gradient, and prepared into 10 compound working solutions with different concentrations; • for the activity inhibition reaction of recombinant human Vanin-1 (Biorab, JN0618), 2.5 μL of compound working solution and 5 μL of recombinant human Vanin-1 protein were first mixed. […] Raw data at the 30th minute were collected for data processing and analysis, then the concentration-effect curve was fitted with GraphPad Prism 8 software, and the IC50 of the compound concentration was calculated.

[2] = In vivo pharmacokinetic evaluation in mice; conditions: C57BL6 mice; for Peak concentration Cmax: plasma
Description: 2. In Vivo Pharmacokinetic Evaluation in Mice
To detect pharmacokinetic parameters of the compounds of the present disclosure in C57BL6 mice
The vehicle used in the experiment was: DMSO:Solutol:PBS=5%:25%:70% (v/v/v). Preparation method: The required compound was weighed accurately, added with a certain volume of DMSO in a certain proportion, vortex-mixed until completely dissolved, then added successively with Solutol and PBS according to the above proportion, and mixed well. The vehicles used in the intravenous (iv) administration group and oral (po) administration group were the same vehicles in the experiment. The intravenous dose was 1 mpk and the oral dose was 2 mpk. Experimental blood collection time points: IV group: 0.083, 0.25, 0.5, 1, 2, 4, 7, 24 h. PO group: 200 μL of whole blood was collected from jugular vein at each time point of 0.25, 0.5, 1, 2, 4, 7 and 24 h, anticoagulated with EDTA-K2, and immediately centrifuged at 4000 rpm for 5 minutes at 4° C. The supernatant was taken and the samples were frozen and stored in a refrigerator at −80° C. Processing of plasma samples: The sample was precipitated with ACN/MeOH (1:1, v/v) precipitant containing internal standard, then centrifuged at 14000 rpm for 5 minutes. The supernatant was taken into LC-MS/MS (AB Triple Quard 5500) for analysis to obtain plasma concentrations, and parameters were calculated by the non-compartmental model of Winnolin 8.1 version.

[3] = intragastric administration group po, 2 mpk
[4] = intravenous injection group iv, 1 mpk

Chain of recombinant human Vanin-1 (O95497 22-513): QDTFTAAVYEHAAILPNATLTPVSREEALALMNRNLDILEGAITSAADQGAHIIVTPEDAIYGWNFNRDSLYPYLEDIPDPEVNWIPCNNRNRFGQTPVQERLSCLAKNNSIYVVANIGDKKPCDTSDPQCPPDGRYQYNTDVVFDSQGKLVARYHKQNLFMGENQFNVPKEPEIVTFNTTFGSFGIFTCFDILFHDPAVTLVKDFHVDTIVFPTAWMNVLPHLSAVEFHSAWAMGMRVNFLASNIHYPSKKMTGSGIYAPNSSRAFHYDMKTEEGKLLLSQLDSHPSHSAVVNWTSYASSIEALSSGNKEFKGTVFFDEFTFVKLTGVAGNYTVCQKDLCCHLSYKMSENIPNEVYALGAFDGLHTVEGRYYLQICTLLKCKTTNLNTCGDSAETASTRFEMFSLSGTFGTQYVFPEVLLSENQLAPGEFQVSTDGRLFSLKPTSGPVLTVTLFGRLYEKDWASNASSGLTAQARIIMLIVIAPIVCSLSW

SMILES: O=C(c1cnc(NC2CCc3ncccc32)nc1)N1CCC2(CCOCC2)C1 (centres unmarked) [Compound 2]
IC50 [1]: 8.9 nM

SMILES: CCC1(CC)CCN(C(=O)c2cnc(N[C@@H]3CCc4ncccc43)nc2)C1 [Compound 13]
IC50 [1]: 4.2 nM

SMILES: Cc1ccc2c(n1)CCC2Nc1ncc(C(=O)N2CCC3(CCOCC3)C2)cn1 (centres unmarked) [Compound 19]
Area under the curve AUC0-7h [2, 3]: 1459.29 ng·h/mL
Clearance rate CL [2, 3]: 21.9452 mL/min/kg
Distributed solvent Vd [2, 3]: 2.91 L/kg
Half-life T1/2 [2, 3]: 1.52 h
Peak concentration Cmax [2, 3]: 766.60 ng/mL
IC50 [1]: 2.9 nM

Now from value to compound:

Area under the curve AUC0-7h [2, 3]: 684.31 ng·h/mL
Clearance rate CL [2, 3]: 48.6622 mL/min/kg
Distributed solvent Vd [2, 3]: 4.55 L/kg
Half-life T1/2 [2, 3]: 1.05 h
Peak concentration Cmax [2, 3]: 539.37 ng/mL
Area under the curve AUC0-7h [2, 4]: 557.60 ng·h/mL
Clearance rate CL [2, 4]: 33.857 mL/min/kg
Distributed solvent Vd [2, 4]: 2.60 L/kg
Half-life T1/2 [2, 4]: 0.93 h
Peak concentration Cmax [2, 4]: 742.33 ng/mL
Bioavailability F % ([2]; po 2 mpk vs iv 1 mpk): 61.4%
IC50 [1]: 0.6 nM
SMILES: CC(=O)N(C)C1CCN(C(=O)c2cnc(N[C@@H]3CCc4ncccc43)nc2)C1 (some centres unmarked) [Compound 17]

IC50 [1]: 6.9 nM
SMILES: Cc1cnc2c(c1)C(Nc1ncc(C(=O)N3CCC4(CCOCC4)C3)cn1)CC2 (centres unmarked) [Compound 21]

IC50 [1]: 1.7 nM
SMILES: O=C(c1cnc(NC2CCc3ncc(Br)cc32)nc1)N1CCC2(CCOCC2)C1 (centres unmarked) [Compound 23]

IC50 [1]: 2 nM
SMILES: CCC(=O)N(C)C1CCN(C(=O)c2cnc(N[C@@H]3CCc4ncccc43)nc2)C1 (some centres unmarked) [Compound 26]
